Source: US11753445B2, “Therapeutic peptides” (COHBAR, INC., priority 2016, dated 2023)
Peptide text beside a SMILES is read from it.

These molecules were tested on 3T3-L1 Adipocytes (assay: Free fatty acid levels in cultured mouse 3T3-L1 adipocytes, isoproterenol stimulated (Example 2)). Conditions: test peptides 25 μM; isoproterenol 1 nM.
Assay type: cell-based
Method: Mouse 3T3-L1 cells were seeded at a density between 1,000-20,000 cells per well on 96-well, 48-well, or 24-well plates in Pre-adipocyte Medium (Zen-Bio, Durham, N.C.) and grown to confluence at 37° C. in a humidified atmosphere of 5% CO2/95% air. Two days after confluence, cells were placed in Adipocyte Differentiation Medium (Zen-Bio, Durham, N.C.) and cultured for three additional days at 37° C. in a humidified atmosphere of 5% CO2/95% air. The culture media was then replaced with Adipocyte Maintenance Medium (Zen-Bio) and the cells were maintained for an additional 9-14 days at 37° C. in a humidified atmosphere of 5% CO2/95% air with partial medium replacement every other day. Following 12-17 days of differentiation, test peptides were added at a final concentration of 25 μM and incubated for 18-20 hours in Adipocyte Maintenance Medium at 37° C. in a humidified atmosphere of 5% CO2/95%. After 18-20 hours, the media was exchanged with fresh Adipocyte Maintenance Medium containing test peptides and incubated for 1 h at 37° C. in a humidified atmosphere of 5% CO2/95%. After 1 h media was exchanged with Assay Buffer (Zen-Bio) containing isoproterenol (1 nM) (added to all samples except untreated controls) and the test peptides. Cells were incubated for a further 3 hours at 37° C. in a humidified atmosphere of 5% CO2/95%. Free fatty acid concentrations in the media were determined using a Free Fatty Acid Assay Kit (Zen-Bio) according to the manufacturer's instructions using a plate reader (540 nm).
Absorbance values were corrected for untreated background and expressed relative to isoproterenol treated cells. Treatment with isoproterenol (1 nM) alone was used as the free fatty acid level stimulatory control. The relative standard deviation of the isoproterenol control was <10%. […] Free fatty acid levels for insulin (100 nM) treatment were <5% of the isoproterenol control value.

Point of comparison: CC[C@H](C)[C@H](NC(=O)[C@H](Cc1ccc(O)cc1)NC(=O)CNC(=O)[C@H](CCSC)NC(=O)[C@H](CCC(=O)O)NC(=O)[C@H](CCC(N)=O)NC(=O)[C@H](Cc1c[nH]c2ccccc12)NC(=O)[C@@H](C)NC(=O)[C@H](CCSC)NC(C)=O)C(=O)N[C@@H](Cc1ccccc1)C(=O)N[C@@H](Cc1ccc(O)cc1)C(=O)N1CCC[C@H]1C(=O)N[C@@H](CCCNC(=N)N)C(=O)N[C@@H](CCCCN)C(=O)N[C@@H](CC(C)C)C(=O)N[C@@H](CCCNC(=N)N)C(N)=O [compound 153] (HELM PEPTIDE1{[ac].M.[dA].W.Q.E.M.G.Y.I.F.Y.P.R.K.L.R.[am]}$$$$V2.0), “Free Fatty Acid Levels in 3T3-L1 Adipocytes Expressed as a Percent of Isoproterenol Control: Percent of Control Value” 93.1%. Against it:
- CC[C@H](C)[C@H](NC(=O)[C@H](Cc1ccc(O)cc1)NC(=O)CNC(=O)[C@H](CCSC)NC(=O)[C@H](CCC(=O)O)NC(=O)[C@H](CCC(N)=O)NC(=O)[C@@H](C)NC(=O)[C@H](CCCNC(=N)N)NC(=O)[C@H](CCSC)NC(C)=O)C(=O)N[C@@H](Cc1ccccc1)C(=O)N[C@@H](Cc1ccc(O)cc1)C(=O)N1CCC[C@H]1C(=O)N[C@@H](CCCNC(=N)N)C(=O)N[C@@H](CCCCN)C(=O)N[C@@H](CC(C)C)C(=O)N[C@@H](CCCNC(=N)N)C(N)=O [compound 154] (HELM PEPTIDE1{[ac].M.R.[dA].Q.E.M.G.Y.I.F.Y.P.R.K.L.R.[am]}$$$$V2.0) — higher, 95.7%
- CC[C@H](C)[C@H](NC(=O)[C@H](Cc1ccc(O)cc1)NC(=O)CNC(=O)[C@H](CCSC)NC(=O)[C@H](CCC(=O)O)NC(=O)[C@@H](C)NC(=O)[C@H](Cc1c[nH]c2ccccc12)NC(=O)[C@H](CCCNC(=N)N)NC(=O)[C@H](CCSC)NC(C)=O)C(=O)N[C@@H](Cc1ccccc1)C(=O)N[C@@H](Cc1ccc(O)cc1)C(=O)N1CCC[C@H]1C(=O)N[C@@H](CCCNC(=N)N)C(=O)N[C@@H](CCCCN)C(=O)N[C@@H](CC(C)C)C(=O)N[C@@H](CCCNC(=N)N)C(N)=O [compound 155] (HELM PEPTIDE1{[ac].M.R.W.[dA].E.M.G.Y.I.F.Y.P.R.K.L.R.[am]}$$$$V2.0) — lower, 90.1%
- CC[C@H](C)[C@H](NC(=O)[C@H](Cc1ccc(O)cc1)NC(=O)CNC(=O)[C@H](CCSC)NC(=O)[C@@H](C)NC(=O)[C@H](CCC(N)=O)NC(=O)[C@H](Cc1c[nH]c2ccccc12)NC(=O)[C@H](CCCNC(=N)N)NC(=O)[C@H](CCSC)NC(C)=O)C(=O)N[C@@H](Cc1ccccc1)C(=O)N[C@@H](Cc1ccc(O)cc1)C(=O)N1CCC[C@H]1C(=O)N[C@@H](CCCNC(=N)N)C(=O)N[C@@H](CCCCN)C(=O)N[C@@H](CC(C)C)C(=O)N[C@@H](CCCNC(=N)N)C(N)=O [compound 156] (HELM PEPTIDE1{[ac].M.R.W.Q.[dA].M.G.Y.I.F.Y.P.R.K.L.R.[am]}$$$$V2.0) — higher, 94.7%
- CC[C@H](C)[C@H](NC(=O)[C@H](Cc1ccc(O)cc1)NC(=O)CNC(=O)[C@@H](C)NC(=O)[C@H](CCC(=O)O)NC(=O)[C@H](CCC(N)=O)NC(=O)[C@H](Cc1c[nH]c2ccccc12)NC(=O)[C@H](CCCNC(=N)N)NC(=O)[C@H](CCSC)NC(C)=O)C(=O)N[C@@H](Cc1ccccc1)C(=O)N[C@@H](Cc1ccc(O)cc1)C(=O)N1CCC[C@H]1C(=O)N[C@@H](CCCNC(=N)N)C(=O)N[C@@H](CCCCN)C(=O)N[C@@H](CC(C)C)C(=O)N[C@@H](CCCNC(=N)N)C(N)=O [compound 157] (HELM PEPTIDE1{[ac].M.R.W.Q.E.[dA].G.Y.I.F.Y.P.R.K.L.R.[am]}$$$$V2.0) — lower, 85.0%
- CC[C@H](C)[C@H](NC(=O)[C@@H](C)NC(=O)CNC(=O)[C@H](CCSC)NC(=O)[C@H](CCC(=O)O)NC(=O)[C@H](CCC(N)=O)NC(=O)[C@H](Cc1c[nH]c2ccccc12)NC(=O)[C@H](CCCNC(=N)N)NC(=O)[C@H](CCSC)NC(C)=O)C(=O)N[C@@H](Cc1ccccc1)C(=O)N[C@@H](Cc1ccc(O)cc1)C(=O)N1CCC[C@H]1C(=O)N[C@@H](CCCNC(=N)N)C(=O)N[C@@H](CCCCN)C(=O)N[C@@H](CC(C)C)C(=O)N[C@@H](CCCNC(=N)N)C(N)=O [compound 159] (HELM PEPTIDE1{[ac].M.R.W.Q.E.M.G.[dA].I.F.Y.P.R.K.L.R.[am]}$$$$V2.0) — lower, 87.4%
- CSCC[C@H](NC(C)=O)C(=O)N[C@@H](CCCNC(=N)N)C(=O)N[C@@H](Cc1c[nH]c2ccccc12)C(=O)N[C@@H](CCC(N)=O)C(=O)N[C@@H](CCC(=O)O)C(=O)N[C@@H](CCSC)C(=O)NCC(=O)N[C@@H](Cc1ccc(O)cc1)C(=O)N[C@H](C)C(=O)N[C@@H](Cc1ccccc1)C(=O)N[C@@H](Cc1ccc(O)cc1)C(=O)N1CCC[C@H]1C(=O)N[C@@H](CCCNC(=N)N)C(=O)N[C@@H](CCCCN)C(=O)N[C@@H](CC(C)C)C(=O)N[C@@H](CCCNC(=N)N)C(N)=O [compound 160] (HELM PEPTIDE1{[ac].M.R.W.Q.E.M.G.Y.[dA].F.Y.P.R.K.L.R.[am]}$$$$V2.0) — lower, 87.1%
- CC[C@H](C)[C@H](NC(=O)[C@H](Cc1ccc(O)cc1)NC(=O)CNC(=O)[C@H](CCSC)NC(=O)[C@H](CCC(=O)O)NC(=O)[C@H](CCC(N)=O)NC(=O)[C@H](Cc1c[nH]c2ccccc12)NC(=O)[C@H](CCCNC(=N)N)NC(=O)[C@H](CCSC)NC(C)=O)C(=O)N[C@H](C)C(=O)N[C@@H](Cc1ccc(O)cc1)C(=O)N1CCC[C@H]1C(=O)N[C@@H](CCCNC(=N)N)C(=O)N[C@@H](CCCCN)C(=O)N[C@@H](CC(C)C)C(=O)N[C@@H](CCCNC(=N)N)C(N)=O [compound 161] (HELM PEPTIDE1{[ac].M.R.W.Q.E.M.G.Y.I.[dA].Y.P.R.K.L.R.[am]}$$$$V2.0) — lower, 83.7%
- CC[C@H](C)[C@H](NC(=O)[C@H](Cc1ccc(O)cc1)NC(=O)CNC(=O)[C@H](CCSC)NC(=O)[C@H](CCC(=O)O)NC(=O)[C@H](CCC(N)=O)NC(=O)[C@H](Cc1c[nH]c2ccccc12)NC(=O)[C@H](CCCNC(=N)N)NC(=O)[C@H](CCSC)NC(C)=O)C(=O)N[C@@H](Cc1ccccc1)C(=O)N[C@H](C)C(=O)N1CCC[C@H]1C(=O)N[C@@H](CCCNC(=N)N)C(=O)N[C@@H](CCCCN)C(=O)N[C@@H](CC(C)C)C(=O)N[C@@H](CCCNC(=N)N)C(N)=O [compound 162] (HELM PEPTIDE1{[ac].M.R.W.Q.E.M.G.Y.I.F.[dA].P.R.K.L.R.[am]}$$$$V2.0) — lower, 82.4%
- CC[C@H](C)[C@H](NC(=O)[C@H](Cc1ccc(O)cc1)NC(=O)CNC(=O)[C@H](CCSC)NC(=O)[C@H](CCC(=O)O)NC(=O)[C@H](CCC(N)=O)NC(=O)[C@H](Cc1c[nH]c2ccccc12)NC(=O)[C@H](CCCNC(=N)N)NC(=O)[C@H](CCSC)NC(C)=O)C(=O)N[C@@H](Cc1ccccc1)C(=O)N[C@@H](Cc1ccc(O)cc1)C(=O)N[C@H](C)C(=O)N[C@@H](CCCNC(=N)N)C(=O)N[C@@H](CCCCN)C(=O)N[C@@H](CC(C)C)C(=O)N[C@@H](CCCNC(=N)N)C(N)=O [compound 163] (HELM PEPTIDE1{[ac].M.R.W.Q.E.M.G.Y.I.F.Y.[dA].R.K.L.R.[am]}$$$$V2.0) — lower, 91.8%
- CC[C@H](C)[C@H](NC(=O)[C@H](Cc1ccc(O)cc1)NC(=O)CNC(=O)[C@H](CCSC)NC(=O)[C@H](CCC(=O)O)NC(=O)[C@H](CCC(N)=O)NC(=O)[C@H](Cc1c[nH]c2ccccc12)NC(=O)[C@H](CCCNC(=N)N)NC(=O)[C@H](CCSC)NC(C)=O)C(=O)N[C@@H](Cc1ccccc1)C(=O)N[C@@H](Cc1ccc(O)cc1)C(=O)N1CCC[C@H]1C(=O)N[C@H](C)C(=O)N[C@@H](CCCCN)C(=O)N[C@@H](CC(C)C)C(=O)N[C@@H](CCCNC(=N)N)C(N)=O [compound 164] (HELM PEPTIDE1{[ac].M.R.W.Q.E.M.G.Y.I.F.Y.P.[dA].K.L.R.[am]}$$$$V2.0) — lower, 77.2%
- CC[C@H](C)[C@H](NC(=O)[C@H](Cc1ccc(O)cc1)NC(=O)CNC(=O)[C@H](CCSC)NC(=O)[C@H](CCC(=O)O)NC(=O)[C@H](CCC(N)=O)NC(=O)[C@H](Cc1c[nH]c2ccccc12)NC(=O)[C@H](CCCNC(=N)N)NC(=O)[C@H](CCSC)NC(C)=O)C(=O)N[C@@H](Cc1ccccc1)C(=O)N[C@@H](Cc1ccc(O)cc1)C(=O)N1CCC[C@H]1C(=O)N[C@@H](CCCNC(=N)N)C(=O)N[C@H](C)C(=O)N[C@@H](CC(C)C)C(=O)N[C@@H](CCCNC(=N)N)C(N)=O [compound 165] (HELM PEPTIDE1{[ac].M.R.W.Q.E.M.G.Y.I.F.Y.P.R.[dA].L.R.[am]}$$$$V2.0) — lower, 82.0%
